According to patent CN113698460A, “一种大肠杆菌lipid A结合基元PCK及其制备方法与应用” (priority 2021, dated 2021):
No end group written: not given here.

System: 北京鸭红细胞
Assay: Hemolysis of red blood cells
Type: cell-based, Peking duck

Row | Compound | Hemolysis rate (berberine alone, concentration not given) [%] | Toxicity to Peking duck red blood cells (PCK 0.5-128 μg/mL)
1 | COc1ccc2cc3[n+](cc2c1OC)CCc1cc2c(cc1-3)OCO2 [小檗碱] | 1 | 
2 | SYPMYARRFLFKWGLLR-NH2 [PCK, Ser Tyr Pro Met Tyr Ala Arg Arg Phe Leu Phe Lys Trp Gly Leu Leu Arg-NH2] |  | 没有毒性
